In patent publication US5202315A, “Cephalosporin compounds” (Lucky, Ltd., priority 1989, dated 1993):
In brackets after ≈: the same amount, converted by molar mass. Where two headings read alike, the source gives them in different places.

Assays:
Assay type in all cases: cell-based
[1] = system: Acinetobacter calcoaceticus ATCC 15473; assay: Antibacterial activity, MIC; conditions: ATCC15473, ATCC 15473, agar two-fold dilution, 37° C., 20 hours, read-out: MIC
In short: (§1)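 Incubation at 37 °C for 20 h followed inoculation of 2 μl standard strain (10^7 CFU/ml) onto agar carrying the compound. Compound was incorporated into Mueller-Hinton agar as two-fold serial dilutions.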

[2] = system: Bacillus cereus ATCC 11778; assay: Antibacterial activity, MIC; conditions: ATCC11778, ATCC 11778, agar two-fold dilution, 37° C., 20 hours, read-out: MIC
In short: as §1

[3] = system: Bacillus megaterium ATCC 9885; assay: Antibacterial activity, MIC; conditions: Priestia megaterium, ATCC9885; ATCC 9885; agar two-fold dilution, 37° C., 20 hours; read-out: MIC
In short: as §1

[4] = system: Citrobacter freundii ATCC 8090; assay: Antibacterial activity, MIC; conditions: ATCC8090, ATCC 8090, agar two-fold dilution, 37° C., 20 hours, read-out: MIC
In short: as §1

[5] = system: Enterobacter aerogenes ATCC 29751; assay: Antibacterial activity, MIC; conditions: Klebsiella aerogenes, ATCC29751; ATCC 29751; agar two-fold dilution, 37° C., 20 hours; read-out: MIC
In short: as §1

[6] = system: Enterobacter cloacae ATCC 27508; assay: Antibacterial activity, MIC; conditions: ATCC27508, ATCC 27508, agar two-fold dilution, 37° C., 20 hours, read-out: MIC
In short: as §1

[7] = system: Escherichia coli ATCC 10536; assay: Antibacterial activity, MIC; conditions: ATCC10536, agar two-fold dilution, 37° C., 20 hours
In short: as §1

[8] = system: Escherichia coli ATCC 25922; assay: Antibacterial activity, MIC; conditions: ATCC25922, agar two-fold dilution, 37° C., 20 hours
In short: as §1

[9] = system: Klebsiella pneumoniae ATCC 10031; assay: Antibacterial activity, MIC; conditions: ATCC10031, ATCC 10031, agar two-fold dilution, 37° C., 20 hours, read-out: MIC
In short: as §1

[10] = system: Micrococcus luteus ATCC 9341; assay: Antibacterial activity, MIC; conditions: ATCC9341, ATCC 9341, agar two-fold dilution, 37° C., 20 hours, read-out: MIC
In short: as §1

[11] = system: Morganella morganii ATCC 8076h; assay: Antibacterial activity, MIC; conditions: ATCC8076H, agar two-fold dilution, 37° C., 20 hours
In short: as §1

[12] = system: Proteus mirabilis ATCC 25933; assay: Antibacterial activity, MIC; conditions: ATCC25933, ATCC 25933, agar two-fold dilution, 37° C., 20 hours, read-out: MIC
In short: as §1

[13] = system: Proteus vulgaris ATCC 6059; assay: Antibacterial activity, MIC; conditions: ATCC6059, ATCC 6059, agar two-fold dilution, 37° C., 20 hours, read-out: MIC
In short: as §1

[14] = system: Providencia rettgeri ATCC 9250; assay: Antibacterial activity, MIC; conditions: ATCC9250, agar two-fold dilution, 37° C., 20 hours
In short: as §1

[15] = system: Pseudomonas aeruginosa ATCC 10145; assay: Antibacterial activity, MIC; conditions: ATCC10145, ATCC 10145, agar two-fold dilution, 37° C., 20 hours, read-out: MIC
In short: as §1

[16] = system: Pseudomonas aeruginosa ATCC 25619; assay: Antibacterial activity, MIC; conditions: ATCC25619, ATCC 25619, agar two-fold dilution, 37° C., 20 hours, read-out: MIC
In short: as §1

[17] = system: Pseudomonas aeruginosa ATCC 27853; assay: Antibacterial activity, MIC; conditions: ATCC27853, ATCC 27853, agar two-fold dilution, 37° C., 20 hours, read-out: MIC
In short: as §1

[18] = system: Salmonella typhimurium ATCC 14028; assay: Antibacterial activity, MIC; conditions: Salmonella enterica; ATCC 14028; agar two-fold dilution, 37° C., 20 hours; read-out: MIC
In short: as §1

[19] = system: Serratia marcescens ATCC 27117; assay: Antibacterial activity, MIC; conditions: ATCC27117, ATCC 27117, agar two-fold dilution, 37° C., 20 hours, read-out: MIC
In short: as §1

[20] = system: Shigella flexneri ATCC 11836; assay: Antibacterial activity, MIC; conditions: ATCC11836, agar two-fold dilution, 37° C., 20 hours
In short: as §1

[21] = system: Shigella sonnei ATCC 11060; assay: Antibacterial activity, MIC; conditions: ATCC11060, ATCC 11060, agar two-fold dilution, 37° C., 20 hours, read-out: MIC
In short: as §1

[22] = system: Staphylococcus aureus ATCC 10537; assay: Antibacterial activity, MIC; conditions: ATCC10537, ATCC 10537, agar two-fold dilution, 37° C., 20 hours, read-out: MIC
In short: as §1

[23] = system: Staphylococcus aureus ATCC 6538p; assay: Antibacterial activity, MIC; conditions: ATCC6538P, ATCC 6538p, agar two-fold dilution, 37° C., 20 hours, read-out: MIC
In short: as §1

[24] = system: Staphylococcus epidermidis ATCC 12228; assay: Antibacterial activity, MIC; conditions: ATCC12228, ATCC 12228, agar two-fold dilution, 37° C., 20 hours, read-out: MIC
In short: as §1

[25] = system: Streptococcus faecalis ATCC 29212; assay: Antibacterial activity, MIC; conditions: Enterococcus faecalis, ATCC29212; ATCC 29212; agar two-fold dilution, 37° C., 20 hours; read-out: MIC
In short: as §1

[26] = system: Escherichia coli; assay: Antibacterial activity against clinically isolated strains, MIC; conditions: 38 clinical isolates, broth microdilution test
[27] = system: Klebsiella pneumoniae; assay: as above; conditions: 10 clinical isolates, broth microdilution test; for MIC90: read-out: MIC 90%
[28] = system: Staphylococcus aureus methicillin susceptible; assay: as above
[29] = system: Staphylococcus aureus methicillin resistant; assay: as above; conditions: methicillin resistant, 7 clinical isolates, broth microdilution test; for MIC90: read-out: MIC 90%
[30] = system: Pseudomonas aeruginosa; assay: as above
[31] = methicillin susceptible, 42 clinical isolates, broth microdilution test
[32] = 54 clinical isolates, broth microdilution test
[33] = methicillin susceptible, 42 clinical isolates, broth microdilution test, read-out: MIC 90%

Compound | MIC [1] | MIC [2] | MIC [3] | MIC [4] | MIC [5] | MIC [6] | MIC [7] | MIC [8] | MIC [9] | MIC [10] | MIC [11] | MIC [12] | MIC [13] | MIC [14] | MIC [15] | MIC [16] | MIC [17] | MIC [18] | MIC [19] | MIC [20] | further results
CCO/N=C(\C(=O)NC1C(=O)N2C(C(=O)[O-])=C(CSc3nc(N)cc(N)[n+]3C)CSC12)c1nsc(N)n1 (stereo not drawn) [Compound I-20] | 2 µg/mL (≈ 3.53 µM) | 32 µg/mL (≈ 56.5 µM) | 0.13 µg/mL (≈ 0.229 µM) | 0.13 µg/mL (≈ 0.229 µM) | 0.25 µg/mL (≈ 0.441 µM) | 0.016 µg/mL (≈ 0.0282 µM) | 0.13 µg/mL (≈ 0.229 µM) | 0.13 µg/mL (≈ 0.229 µM) | 0.016 µg/mL (≈ 0.0282 µM) | 0.031 µg/mL (≈ 0.0547 µM) | 0.016 µg/mL (≈ 0.0282 µM) | 0.5 µg/mL (≈ 0.882 µM) | 1 µg/mL (≈ 1.76 µM) | ≤ 0.008 µg/mL | 4 µg/mL (≈ 7.06 µM) | 1 µg/mL (≈ 1.76 µM) | 2 µg/mL (≈ 3.53 µM) | 0.5 µg/mL (≈ 0.882 µM) | 0.25 µg/mL (≈ 0.441 µM) | 0.031 µg/mL (≈ 0.0547 µM) | MIC [21]: 0.13 µg/mL (≈ 0.229 µM); MIC [22]: 0.25 µg/mL (≈ 0.441 µM); MIC [23]: 0.5 µg/mL (≈ 0.882 µM); MIC [24]: 0.25 µg/mL (≈ 0.441 µM); MIC [25]: 32 µg/mL (≈ 56.5 µM); MIC50 [26]: 0.063 µg/mL (≈ 0.111 µM); MIC90 [26]: 0.25 µg/mL (≈ 0.441 µM); MIC50 [27]: 0.13 µg/mL (≈ 0.229 µM); MIC90 [27]: 0.13 µg/mL (≈ 0.229 µM); MIC90 [28]: 0.5 µg/mL (≈ 0.882 µM); MIC50 [28, 31]: 0.5 µg/mL (≈ 0.882 µM); MIC50 [29]: 16 µg/mL (≈ 28.2 µM); MIC90 [29]: 32 µg/mL (≈ 56.5 µM); MIC90 [30]: 16 µg/mL (≈ 28.2 µM); MIC50 [30, 32]: 4 µg/mL (≈ 7.06 µM)
C#CCO/N=C(\C(=O)NC1C(=O)N2C(C(=O)[O-])=C(CSc3nc(N)cc(N)[n+]3C)CSC12)c1csc(N)n1 (stereo not drawn) [Compound I-46] | 2 µg/mL (≈ 3.47 µM) | 8 µg/mL (≈ 13.9 µM) | 0.063 µg/mL (≈ 0.109 µM) | 0.063 µg/mL (≈ 0.109 µM) | 0.25 µg/mL (≈ 0.434 µM) | ≤ 0.008 µg/mL | 0.063 µg/mL (≈ 0.109 µM) | 0.063 µg/mL (≈ 0.109 µM) | ≤ 0.008 µg/mL | 0.016 µg/mL (≈ 0.0278 µM) | ≤ 0.008 µg/mL | 0.063 µg/mL (≈ 0.109 µM) | 0.13 µg/mL (≈ 0.226 µM) | ≤ 0.008 µg/mL | 4 µg/mL (≈ 6.95 µM) | 0.5 µg/mL (≈ 0.869 µM) | 2 µg/mL (≈ 3.47 µM) | 0.25 µg/mL (≈ 0.434 µM) | 0.13 µg/mL (≈ 0.226 µM) | 0.016 µg/mL (≈ 0.0278 µM) | MIC [21]: 0.063 µg/mL (≈ 0.109 µM); MIC [22]: 0.13 µg/mL (≈ 0.226 µM); MIC [23]: 0.13 µg/mL (≈ 0.226 µM); MIC [24]: 0.031 µg/mL (≈ 0.0539 µM); MIC [25]: 16 µg/mL (≈ 27.8 µM); MIC50 [26]: 0.13 µg/mL (≈ 0.226 µM); MIC90 [26]: 0.25 µg/mL (≈ 0.434 µM); MIC50 [27]: 0.13 µg/mL (≈ 0.226 µM); MIC90 [27]: 0.13 µg/mL (≈ 0.226 µM); MIC50 [28, 31]: 0.25 µg/mL (≈ 0.434 µM); MIC90 [28, 33]: 0.25 µg/mL (≈ 0.434 µM); MIC50 [29]: > 32 µg/mL; MIC90 [29]: > 32 µg/mL; MIC50 [30, 32]: 4 µg/mL (≈ 6.95 µM); MIC90 ([30]; 54 clinical isolates, broth microdilution test, read-out: MIC 90%): 8 µg/mL (≈ 13.9 µM)
C#CCO/N=C(\C(=O)NC1C(=O)N2C(C(=O)[O-])=C(CSc3nc(N)cc(N)[n+]3CC)CSC12)c1csc(N)n1 (stereo not drawn) [Compound I-47] | 4 µg/mL (≈ 6.78 µM) | 8 µg/mL (≈ 13.6 µM) | 0.13 µg/mL (≈ 0.22 µM) | 0.13 µg/mL (≈ 0.22 µM) | 0.5 µg/mL (≈ 0.848 µM) | 0.016 µg/mL (≈ 0.0271 µM) | 0.13 µg/mL (≈ 0.22 µM) | 0.13 µg/mL (≈ 0.22 µM) | ≤ 0.008 µg/mL | ≤ 0.008 µg/mL | ≤ 0.008 µg/mL | 0.13 µg/mL (≈ 0.22 µM) | 0.13 µg/mL (≈ 0.22 µM) | ≤ 0.008 µg/mL | 8 µg/mL (≈ 13.6 µM) | 1 µg/mL (≈ 1.7 µM) | 2 µg/mL (≈ 3.39 µM) | 0.25 µg/mL (≈ 0.424 µM) | 0.13 µg/mL (≈ 0.22 µM) | 0.016 µg/mL (≈ 0.0271 µM) | MIC [21]: 0.13 µg/mL (≈ 0.22 µM); MIC [22]: 0.13 µg/mL (≈ 0.22 µM); MIC [23]: 0.25 µg/mL (≈ 0.424 µM); MIC [24]: 0.031 µg/mL (≈ 0.0526 µM); MIC [25]: 32 µg/mL (≈ 54.3 µM); MIC50 [26]: 0.063 µg/mL (≈ 0.107 µM); MIC90 [26]: 0.25 µg/mL (≈ 0.424 µM); MIC50 [27]: 0.25 µg/mL (≈ 0.424 µM); MIC90 [27]: 0.25 µg/mL (≈ 0.424 µM); MIC50 [28, 31]: 0.25 µg/mL (≈ 0.424 µM); MIC90 [28, 33]: 0.25 µg/mL (≈ 0.424 µM); MIC50 [29]: 64 µg/mL (≈ 109 µM); MIC90 [29]: 64 µg/mL (≈ 109 µM); MIC90 [30]: 16 µg/mL (≈ 27.1 µM); MIC50 [30, 32]: 4 µg/mL (≈ 6.78 µM)
